Assay results taken from the RepoRT retention time repository (doi:10.1016/j.chroma.2022.462867).

Legend:
Settings in all cases: stereoisomer not certain
[1] = RP, Phenomenex Kinetex EVO C18, 150 × 3 mm, 2.6 µm, 40 °C, 0.35 mL/min, estimated dead time 1.9 min; A: water + 0.1% formic acid, pH 3; B: methanol; gradient (min/%B) 0/5 20/100 25/100 30/5
[2] = RP, Phenomenex Kinetex PS C18, 150 × 3 mm, 2.6 µm, 40 °C, 0.35 mL/min, estimated dead time 1.9 min; A: water + 5 mM ammonium acetate, pH 5; B: methanol; gradient (min/%B) 0/5 20/100 25/100 30/5
[3] = RP, Phenomenex Kinetex EVO C18, 150 × 3 mm, 2.6 µm, 40 °C, 0.35 mL/min, estimated dead time 1.9 min; A: water + 5 mM ammonium formate, pH 5; B: acetonitrile; gradient (min/%B) 0/5 20/100 25/100 30/5
[4] = HILIC, Phenomenex Kinetex HILIC, 150 × 3 mm, 2.6 µm, 40 °C, 0.35 mL/min, estimated dead time 1.9 min; A: water + 0.1% formic acid, pH 3; B: methanol; gradient (min/%B) 0/95 20/0 25/0 30/95

Row | Structure (SMILES) | LC retention time [1] | LC retention time [2] | LC retention time [3] | LC retention time [4]
1 | CCOP(=O)(OCC)OCC [Triethyl phosphate] | 10.5 min | 11.2 min | 6.52 min | –
2 | Cn1c(=O)c2c(ncn2C)n(C)c1=O [Caffeine] | 6.69 min | 7.93 min | 3.88 min | –
3 | O=[N+]([O-])c1ccc2ccc3cccc4ccc1c2c34 [1-Nitropyrene] | – | 18.4 min | 14.8 min | –
4 | N#Cc1nn(-c2c(Cl)cc(C(F)(F)F)cc2Cl)c(N)c1S(=O)C(F)(F)F (stereo not given) [Fipronil] | 16.7 min | 16.6 min | – | –
5 | CC(C)COP(=O)(OCC(C)C)OCC(C)C [Tri-isobutyl phosphate] | 17.8 min | 18 min | 14 min | –
6 | CSC1N=C(NC(C)C)NC(NC(C)C)=N1 [Prometryn] | – | 16.2 min | 12.5 min | –
7 | Cc1cccc(C)c1N(Cn1cccn1)C(=O)CCl [Metazachlor] | 13.7 min | 14.1 min | 10.6 min | –
8 | Nc1ccc(Cl)cc1 [4-Chloroaniline] | 5.28 min | 10.3 min | 8.88 min | –
9 | Nc1cnn(-c2ccccc2)c(=O)c1Cl [Chloridazon] | 8.88 min | 9.65 min | 6.18 min | –
10 | CCc1cccc(C)c1N(C(=O)CCl)C(C)COC (stereo not given) [Metolachlor] | 16.3 min | 16.6 min | 12.9 min | –
11 | c1ccc2scnc2c1 [Benzothiazole] | 11.2 min | 11.5 min | 7.96 min | –
12 | CNC(=O)C=C(C)OP(=O)(OC)OC [Monocrotophos] | 6.95 min | 7.86 min | 4.17 min | –
13 | CC(O)(CS(=O)(=O)c1ccc(F)cc1)C(=O)Nc1ccc(C#N)c(C(F)(F)F)c1 (stereo not given) [Bicalutamide] | 14.4 min | 14.6 min | 12.2 min | –
14 | CCCN(CCC)c1c([N+](=O)[O-])cc(C(F)(F)F)cc1[N+](=O)[O-] [Trifluralin] | 16.9 min | 19 min | 16.5 min | –
15 | CCN=C1NC(NC(C)C)=NC(Cl)N1 (stereo not given) [Atrazine] | 13.6 min | 13.9 min | – | –
16 | O=P(Oc1ccccc1)(Oc1ccccc1)Oc1ccccc1 [Triphenylphosphate] | 17.2 min | 17.3 min | 13.8 min | –
17 | c1ccc2c(c1)[nH]c1ccccc12 [Carbazole] | 15.5 min | 15.1 min | 12.5 min | –

Row | Structure (SMILES) | LC retention time [1] | LC retention time [2] | LC retention time [3] | LC retention time [4]
18 | CC(=O)C1CCC2C3CCC4=CC(=O)CCC4(C)C3CCC12C (stereo not given) [Progesterone] | 16.9 min | 17.8 min | 13.3 min | –
19 | CC(=O)OCC(=O)C1(O)CCC2C3CCC4=CC(=O)CCC4(C)C3C(O)CC21C (stereo not given) [Hydrocortisonacetate] | 14.3 min | 15 min | 10.6 min | –
20 | O=C1Nc2ccc(Cl)cc2C(C#CC2CC2)(C(F)(F)F)O1 (stereo not given) [Efavirenz] | 16.8 min | 16.7 min | 13.6 min | –
21 | CCOP(=S)(OCC)Oc1ccc([N+](=O)[O-])cc1 [Parathion] | 16.8 min | 16.7 min | 14.2 min | –
22 | CCC(=O)Nc1ccc(Cl)c(Cl)c1 [Propanil] | 14.9 min | 15 min | 11.8 min | –
23 | CC12CCC3c4ccc(O)cc4CCC3C1CCC2=O (stereo not given) [Estrone] | 15.1 min | 15.7 min | 11.7 min | –
24 | CSC1N=C(NC2CC2)NC(NC(C)(C)C)N1 (stereo not given) [Irgarol] | – | 16.6 min | – | –
25 | Oc1ccc2ccc3cccc4ccc1c2c34 [1-hydroxypyrene] | – | 16.7 min | 13.1 min | –
26 | CC12CCC3c4ccc(O)cc4CCC3C1CCC2O (stereo not drawn) [17beta estradiol] | 15.2 min | 15.8 min | 11.2 min | –
27 | c1ccc2nccnc2c1 [Quinoxaline] | 8.84 min | 9.84 min | 5.73 min | –
28 | CCOP(=S)(OCC)Oc1nc(Cl)c(Cl)cc1Cl [Chlorpyrifos] | – | 18.8 min | 15.9 min | –
29 | CN(C)C(=O)Nc1ccc(Cl)cc1 [Monuron] | 11.5 min | 11.9 min | 8.56 min | –
30 | CCc1cccc(CC)c1N(COC)C(=O)CCl [Alachlor] | 16.2 min | 16.4 min | 13 min | –
31 | Nc1nc(N)nc(N)n1 [Melamine] | – | 2.33 min | – | –
32 | CCCSP(=O)(OCC)SCCC [Ethoprop] | – | 16.5 min | – | –
33 | CCC(C)(C)C(=O)OC1CC(C)C=C2C=CC(C)C(CCC3CC(O)CC(=O)O3)C21 (stereo not given) [Simvastatin] | – | 19.1 min | 14.9 min | –

The remaining lines, values ahead:

Row | LC retention time [1] | LC retention time [2] | LC retention time [3] | LC retention time [4] | Structure (SMILES)
34 | 5.29 min | 6.79 min | 3.27 min | – | Cn1c(=O)c2[nH]cnc2n(C)c1=O [Theophylline]
35 | 12.2 min | 9.47 min | 5.28 min | – | COC(=O)C1CCCCC1S(=O)(=O)NC(=O)NC1=NC(OC)NC(C)N1 (stereo not given) [Metsulfuron-methyl]
36 | 4.62 min | 13.8 min | 9.77 min | – | NS(=O)(=O)c1cc2c(cc1Cl)NCNS2(=O)=O [Hydrochlorothiazide]
37 | 9.19 min | 9.81 min | 6.87 min | – | NS(=O)(=O)c1cc(C2(O)NC(=O)c3ccccc32)ccc1Cl (stereo not given) [Chlorthalidone]
38 | 13.9 min | 14.1 min | 10.6 min | – | CN(C)C(=O)Nc1ccc(Cl)c(Cl)c1 [Diuron]
39 | 5.39 min | 6.53 min | 4.4 min | – | Nc1ccc(S(=O)(=O)Nc2ccccn2)cc1 [Sulfapyridine]
40 | 15.2 min | 15 min | 11.6 min | – | CSc1nc2ccccc2s1 [2-(Methylthio)benzothiazole]
41 | 7.82 min | 9.04 min | – | – | Cc1cc(=O)n(-c2ccccc2)n1C [Phenazone (Antipyrine)]
42 | 12.6 min | 13.2 min | – | – | NC(=O)N1c2ccccc2C=Cc2ccccc21 [Carbamazepine]
43 | 19.4 min | 19.2 min | 15.2 min | – | Oc1ccc2ccccc2c1N=Nc1ccccc1 [Sudan I]
44 | 16.2 min | 16 min | 12.5 min | – | COc1ccc(Cl)cc1C(=O)NCCc1ccc(S(=O)(=O)NC(=O)NC2CCCCC2)cc1 [Glibenclamide]
45 | 11.9 min | 12.4 min | 8.6 min | – | CCN=C1NC(=NCC)NC(Cl)N1 (stereo not given) [Simazine]
46 | 7.35 min | 8.12 min | 5 min | – | c1ccc2n[nH]nc2c1 [1H-Benzotriazole]
47 | – | – | – | 4 min | CN1CC(=O)NC1=N [Creatinine]
48 | 14.9 min | 15.9 min | 11.2 min | – | C#CC1(O)CCC2C3CCC4=CC(=O)CCC4C3CCC21C (stereo not given) [Norethindrone]
49 | – | 13.5 min | 8.73 min | – | CCCCC(=O)N(Cc1ccc(-c2ccccc2-c2nn[nH]n2)cc1)C(C(=O)O)C(C)C (stereo not given) [Valsartan]
50 | – | 3.85 min | – | – | NC(=O)c1cccnc1 [Nicotinamide]
51 | – | 16.5 min | 12.8 min | – | CCC1=C(C)CN(C(=O)NCCc2ccc(S(=O)(=O)NC(=O)NC3CCC(C)CC3)cc2)C1=O (stereo not given) [Glimepiride]
52 | 14.5 min | 14.6 min | 9.45 min | – | CCCCC1=NC2(CCCC2)C(=O)N1Cc1ccc(-c2ccccc2-c2nn[nH]n2)cc1 [Irbesartan]
53 | 14.1 min | 13 min | – | – | O=C(O)c1ccc2ccccc2c1 [2-naphthoic acid]
54 | 15.7 min | 15.5 min | 13 min | – | C1=Cc2ccccc2Nc2ccccc21 [Iminostilbene]
55 | – | 20.3 min | 16.9 min | – | CC(C)C1=CC2=CCC3C(C)(C(=O)O)CCCC3(C)C2CC1 (stereo not given) [Abietic acid]
56 | 6.85 min | 7.7 min | 4.45 min | – | CCCc1cc(=O)[nH]c(=S)[nH]1 [Propylthiouracil]
57 | 8.85 min | 9.64 min | 5.92 min | – | OC(Cn1cncn1)(Cn1cncn1)c1ccc(F)cc1F [fluconazole]
58 | 6.77 min | 7.93 min | 5.18 min | – | Cc1cc(C)nc(NS(=O)(=O)c2ccc(N)cc2)n1 [Sulfamethazine]
59 | 11.4 min | 12 min | 8.86 min | – | CCN=C1NC(Cl)NC(NC(C)(C)C#N)N1 (stereo not given) [Cyanazine]
60 | 14 min | 15 min | 9.72 min | – | CC12CCC(=O)C=C1CCC1C2C(O)CC2(C)C(C(=O)CO)CCC12 (stereo not given) [Corticosterone]
61 | 9.78 min | 10.4 min | 6.42 min | – | Cc1ccc2n[nH]nc2c1 [5-Methyl-1H-benzotriazole]
